{"source": "the supplement of paper PMC10307832", "test_in_all_cases": "relative viability (nuclei count vs DMSO), 5 days (fraction); higher = more cells survive", "key": {"NCI-H838": {"test_system": "NCI-H838", "details": "first compound 8 µM", "in_short": "(§1)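 Lung cancer cell lines in 1536-well plates got either a single drug or a fixed anchor-drug dose together with five library-drug doses (not always all listed) in √10 steps, by pin tool, on the day after seeding. Nuclei were counted after 5 days, and relative viability is the treated-to-vehicle ratio of nuclei counts. Values are medians of duplicate plates.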"}, "BEN": {"test_system": "BEN", "in_short": "as §1"}, "LC-2-ad": {"test_system": "LC-2-ad", "in_short": "as §1"}, "LU99A": {"test_system": "LU99A", "in_short": "as §1"}, "SK-MES-1": {"test_system": "SK-MES-1", "in_short": "as §1"}, "NCI-H596": {"test_system": "NCI-H596", "in_short": "as §1"}, "LCLC-97TM1": {"test_system": "LCLC-97TM1", "in_short": "as §1"}, "NCI-H1666": {"test_system": "NCI-H1666", "in_short": "as §1"}, "NCI-H650": {"test_system": "NCI-H650", "in_short": "as §1"}, "HCC-78": {"test_system": "HCC-78", "in_short": "as §1"}, "NCI-H1355": {"test_system": "NCI-H1355", "in_short": "as §1"}, "NCI-H1651": {"test_system": "NCI-H1651", "in_short": "as §1"}}}
{"compound": "O=c1cc(-c2cccc3c2Sc2ccccc2S3)oc(N2CCOCC2)c1", "note": "+ Cc1cc(Nc2cc(N3CCN(C)CC3)nc(Sc3ccc(NC(=O)C4CC4)cc3)n2)n[nH]1 [Tozasertib] (partner 0.1 µM)", "values": [{"measurement": "relative viability", "setting": "NCI-H838", "value": 0.266}, {"measurement": "relative viability", "setting": "BEN; first compound 0.08 µM", "value": 0.724}, {"measurement": "relative viability", "setting": "BEN; first compound 0.253 µM", "value": 0.487}, {"measurement": "relative viability", "setting": "BEN; first compound 0.8 µM", "value": 0.423}, {"measurement": "relative viability", "setting": "BEN; first compound 2.53 µM", "value": 0.456}, {"measurement": "relative viability", "setting": "BEN; first compound 8 µM", "value": 0.617}, {"measurement": "relative viability", "setting": "LC-2-ad; first compound 0.08 µM", "value": 0.389}, {"measurement": "relative viability", "setting": "LC-2-ad; first compound 0.253 µM", "value": 0.405}, {"measurement": "relative viability", "setting": "LC-2-ad; first compound 0.8 µM", "value": 0.484}, {"measurement": "relative viability", "setting": "LC-2-ad; first compound 2.53 µM", "value": 0.411}, {"measurement": "relative viability", "setting": "LC-2-ad; first compound 8 µM", "value": 0.435}, {"measurement": "relative viability", "setting": "LU99A; first compound 0.08 µM", "value": 0.279}, {"measurement": "relative viability", "setting": "LU99A; first compound 0.253 µM", "value": 0.252}, {"measurement": "relative viability", "setting": "LU99A; first compound 0.8 µM", "value": 0.28}, {"measurement": "relative viability", "setting": "LU99A; first compound 2.53 µM", "value": 0.285}, {"measurement": "relative viability", "setting": "LU99A; first compound 8 µM", "value": 0.296}, {"measurement": "relative viability", "setting": "SK-MES-1; first compound 0.08 µM", "value": 0.902}, {"measurement": "relative viability", "setting": "SK-MES-1; first compound 0.253 µM", "value": 1.04}, {"measurement": "relative viability", "setting": "SK-MES-1; first compound 0.8 µM", "value": 0.879}, {"measurement": "relative viability", "setting": "SK-MES-1; first compound 2.53 µM", "value": 0.848}, {"measurement": "relative viability", "setting": "SK-MES-1; first compound 8 µM", "value": 0.852}, {"measurement": "relative viability", "setting": "NCI-H596; first compound 0.08 µM", "value": 0.758}, {"measurement": "relative viability", "setting": "NCI-H596; first compound 0.253 µM", "value": 0.892}, {"measurement": "relative viability", "setting": "NCI-H596; first compound 0.8 µM", "value": 1.08}, {"measurement": "relative viability", "setting": "NCI-H596; first compound 2.53 µM", "value": 0.762}, {"measurement": "relative viability", "setting": "NCI-H596; first compound 8 µM", "value": 0.997}, {"measurement": "relative viability", "setting": "LCLC-97TM1; first compound 0.08 µM", "value": 0.223}, {"measurement": "relative viability", "setting": "LCLC-97TM1; first compound 0.253 µM", "value": 0.22}, {"measurement": "relative viability", "setting": "LCLC-97TM1; first compound 0.8 µM", "value": 0.205}, {"measurement": "relative viability", "setting": "LCLC-97TM1; first compound 2.53 µM", "value": 0.228}, {"measurement": "relative viability", "setting": "LCLC-97TM1; first compound 8 µM", "value": 0.207}, {"measurement": "relative viability", "setting": "NCI-H1666; first compound 0.08 µM", "value": 0.612}, {"measurement": "relative viability", "setting": "NCI-H1666; first compound 0.253 µM", "value": 0.603}, {"measurement": "relative viability", "setting": "NCI-H1666; first compound 0.8 µM", "value": 0.625}, {"measurement": "relative viability", "setting": "NCI-H1666; first compound 2.53 µM", "value": 0.539}, {"measurement": "relative viability", "setting": "NCI-H1666; first compound 8 µM", "value": 0.615}, {"measurement": "relative viability", "setting": "NCI-H650; first compound 0.08 µM", "value": 0.641}, {"measurement": "relative viability", "setting": "NCI-H650; first compound 0.253 µM", "value": 0.662}, {"measurement": "relative viability", "setting": "NCI-H650; first compound 0.8 µM", "value": 0.758}, {"measurement": "relative viability", "setting": "NCI-H650; first compound 8 µM", "value": 0.708}, {"measurement": "relative viability", "setting": "HCC-78; first compound 0.08 µM", "value": 0.295}, {"measurement": "relative viability", "setting": "HCC-78; first compound 0.253 µM", "value": 0.457}, {"measurement": "relative viability", "setting": "HCC-78; first compound 0.8 µM", "value": 0.511}, {"measurement": "relative viability", "setting": "HCC-78; first compound 2.53 µM", "value": 0.384}, {"measurement": "relative viability", "setting": "HCC-78; first compound 8 µM", "value": 0.334}, {"measurement": "relative viability", "setting": "NCI-H1355; first compound 0.08 µM", "value": 0.521}, {"measurement": "relative viability", "setting": "NCI-H1355; first compound 0.253 µM", "value": 0.511}, {"measurement": "relative viability", "setting": "NCI-H1355; first compound 0.8 µM", "value": 0.483}, {"measurement": "relative viability", "setting": "NCI-H1355; first compound 2.53 µM", "value": 0.52}, {"measurement": "relative viability", "setting": "NCI-H1355; first compound 8 µM", "value": 0.346}, {"measurement": "relative viability", "setting": "NCI-H1651; first compound 0.08 µM", "value": 0.669}, {"measurement": "relative viability", "setting": "NCI-H1651; first compound 0.253 µM", "value": 0.668}, {"measurement": "relative viability", "setting": "NCI-H1651; first compound 0.8 µM", "value": 0.625}, {"measurement": "relative viability", "setting": "NCI-H1651; first compound 2.53 µM", "value": 0.672}, {"measurement": "relative viability", "setting": "NCI-H1651; first compound 8 µM", "value": 0.669}]}
